Results reported in article PMC5513037, “Examining the influence of specificity ligands and ATP-competitive ligands on the overall effectiveness of bivalent kinase inhibitors” (Proteome Science, 2017).

Legend:
Assay in all cases: KAM-matrix competition in K562 lysate;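 for 0.001 uM KAM: median log10 fold change of treatment over DMSO control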;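 for 0.01 uM KAM: median log10 fold change of treatment over DMSO control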;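 for 0.1 uM KAM: median log10 fold change of treatment over DMSO control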;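 for 1 uM KAM: median log10 fold change of treatment over DMSO control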;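 for 10 uM KAM: median log10 fold change of treatment over DMSO control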
Format in all cases: binding
NEK2 = target: T1, NEK2 (Homo sapiens, UniProt P51955);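 for 0.001 uM KAM: median log10 fold change of treatment over DMSO control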;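 for 0.01 uM KAM: median log10 fold change of treatment over DMSO control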;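 for 0.1 uM KAM: median log10 fold change of treatment over DMSO control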;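 for 1 uM KAM: median log10 fold change of treatment over DMSO control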;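 for 10 uM KAM: median log10 fold change of treatment over DMSO control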
T1 construct: endogenous in cells; host or cells: K562
T1 sequence (P51955 1-445): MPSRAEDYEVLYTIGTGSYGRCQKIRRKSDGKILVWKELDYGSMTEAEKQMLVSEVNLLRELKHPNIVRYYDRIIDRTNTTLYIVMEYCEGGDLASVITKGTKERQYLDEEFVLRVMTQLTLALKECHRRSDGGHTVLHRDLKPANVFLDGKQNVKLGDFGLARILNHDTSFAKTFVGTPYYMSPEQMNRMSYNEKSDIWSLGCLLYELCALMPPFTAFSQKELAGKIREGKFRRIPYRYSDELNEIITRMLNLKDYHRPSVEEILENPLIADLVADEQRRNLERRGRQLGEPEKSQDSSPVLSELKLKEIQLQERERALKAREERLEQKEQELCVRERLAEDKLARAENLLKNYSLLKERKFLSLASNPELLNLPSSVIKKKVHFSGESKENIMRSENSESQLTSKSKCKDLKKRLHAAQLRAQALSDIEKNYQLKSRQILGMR
Method: (§1) Supplement 12953_2017_125_MOESM1_ESM.zip/MS_Supp Info.xlsx, sheet "KAM" | column: 10 uM KAM; 1 uM KAM; 0.1 uM KAM; 0.01 uM KAM; 0.001 uM KAM; RB50

MINK1 = target: T2, MINK1 (Homo sapiens, UniProt Q8N4C8)
T2 construct: endogenous in cells; host or cells: K562
Method: as §1

MARK2 = target: T3, MARK2 (Homo sapiens, UniProt Q7KZI7)
T3 construct: endogenous in cells; host or cells: K562
Method: as §1

TYK2 = target: T4, TYK2 (Homo sapiens, UniProt P29597)
T4 construct: endogenous in cells; host or cells: K562
Method: as §1

BMP2K = target: T5, BMP2K (Homo sapiens, UniProt Q9NSY1)
T5 construct: endogenous in cells; host or cells: K562
Method: as §1

PHKG2 = target: T6, PHKG2 (Homo sapiens, UniProt P15735)
T6 construct: endogenous in cells; host or cells: K562 cell lysate
T6 sequence (P15735 1-406): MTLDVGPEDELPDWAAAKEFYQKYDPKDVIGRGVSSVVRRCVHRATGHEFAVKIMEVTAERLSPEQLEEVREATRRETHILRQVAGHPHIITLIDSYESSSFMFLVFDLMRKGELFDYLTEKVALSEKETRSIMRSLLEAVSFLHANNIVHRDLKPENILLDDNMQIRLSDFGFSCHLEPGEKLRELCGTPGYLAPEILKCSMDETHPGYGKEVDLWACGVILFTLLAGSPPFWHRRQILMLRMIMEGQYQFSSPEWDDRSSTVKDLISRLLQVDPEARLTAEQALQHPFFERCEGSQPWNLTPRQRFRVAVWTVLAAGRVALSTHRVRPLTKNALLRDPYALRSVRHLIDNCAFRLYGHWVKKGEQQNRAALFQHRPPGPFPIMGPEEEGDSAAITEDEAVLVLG
Method: as §1

RAF1 = target: T7, RAF1 (Homo sapiens, UniProt P04049);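 for 0.001 uM KAM: median log10 fold change of treatment over DMSO control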;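 for 0.01 uM KAM: median log10 fold change of treatment over DMSO control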;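 for 0.1 uM KAM: median log10 fold change of treatment over DMSO control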;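 for 1 uM KAM: median log10 fold change of treatment over DMSO control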;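 for 10 uM KAM: median log10 fold change of treatment over DMSO control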
T7 construct: endogenous in cells; host or cells: K562
Method: as §1

BRD2 = target: T8, BRD2 (Homo sapiens, UniProt P25440)
T8 construct: endogenous in cells; host or cells: K562
Method: as §1

RIPK2 = target: T9, RIPK2 (Homo sapiens, UniProt O43353)
T9 construct: endogenous in cells; host or cells: K562
Method: as §1

SIK2 = target: T10, SIK2 (Homo sapiens, UniProt Q9H0K1)
T10 construct: endogenous in cells; host or cells: K562 cells (lysate)
Method: as §1

[1] = KAM 0.001-10 uM, read-out: RB50 (the source's name)
[2] = read-out: RB50 (the source's name)

T10 sequence (Q9H0K1 whole entry): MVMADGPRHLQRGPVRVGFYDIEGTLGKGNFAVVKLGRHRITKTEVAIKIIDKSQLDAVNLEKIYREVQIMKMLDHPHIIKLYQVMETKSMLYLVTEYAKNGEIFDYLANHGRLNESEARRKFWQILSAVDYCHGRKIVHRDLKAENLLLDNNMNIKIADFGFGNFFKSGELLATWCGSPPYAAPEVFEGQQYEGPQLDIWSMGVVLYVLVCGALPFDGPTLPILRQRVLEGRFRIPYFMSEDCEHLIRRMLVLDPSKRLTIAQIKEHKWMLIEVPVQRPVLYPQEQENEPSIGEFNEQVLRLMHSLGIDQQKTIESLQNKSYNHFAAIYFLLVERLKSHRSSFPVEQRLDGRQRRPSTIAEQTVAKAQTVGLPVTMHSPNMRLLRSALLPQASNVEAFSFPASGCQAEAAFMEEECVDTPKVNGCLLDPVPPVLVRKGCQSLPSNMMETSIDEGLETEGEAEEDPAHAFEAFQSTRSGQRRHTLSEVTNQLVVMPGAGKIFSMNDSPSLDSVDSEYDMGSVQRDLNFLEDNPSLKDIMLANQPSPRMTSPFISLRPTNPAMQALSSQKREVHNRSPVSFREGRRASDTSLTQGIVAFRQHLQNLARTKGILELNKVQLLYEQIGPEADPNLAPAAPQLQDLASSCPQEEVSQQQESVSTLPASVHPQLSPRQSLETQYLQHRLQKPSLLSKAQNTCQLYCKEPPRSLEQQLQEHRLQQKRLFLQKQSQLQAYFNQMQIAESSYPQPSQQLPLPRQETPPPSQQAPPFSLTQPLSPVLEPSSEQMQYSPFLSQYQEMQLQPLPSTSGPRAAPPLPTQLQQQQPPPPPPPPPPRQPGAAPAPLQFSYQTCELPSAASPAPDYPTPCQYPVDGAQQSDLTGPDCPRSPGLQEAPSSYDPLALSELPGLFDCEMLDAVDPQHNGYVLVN
T9 sequence (O43353 whole entry): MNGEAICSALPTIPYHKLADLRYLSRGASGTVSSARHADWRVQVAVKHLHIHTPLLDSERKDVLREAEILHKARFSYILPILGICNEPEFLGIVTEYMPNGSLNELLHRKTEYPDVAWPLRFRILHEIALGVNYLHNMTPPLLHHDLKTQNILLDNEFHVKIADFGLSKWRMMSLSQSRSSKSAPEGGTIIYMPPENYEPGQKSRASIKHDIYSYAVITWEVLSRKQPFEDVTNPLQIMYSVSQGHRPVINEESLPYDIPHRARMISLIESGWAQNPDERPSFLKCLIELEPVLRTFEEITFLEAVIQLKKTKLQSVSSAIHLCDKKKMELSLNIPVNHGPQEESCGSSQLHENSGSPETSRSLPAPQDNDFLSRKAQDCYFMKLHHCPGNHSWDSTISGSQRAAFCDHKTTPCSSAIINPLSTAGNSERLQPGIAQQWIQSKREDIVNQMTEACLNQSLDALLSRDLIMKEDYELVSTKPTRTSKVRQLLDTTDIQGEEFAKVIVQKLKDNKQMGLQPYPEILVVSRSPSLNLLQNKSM
T2 sequence (Q8N4C8 whole entry): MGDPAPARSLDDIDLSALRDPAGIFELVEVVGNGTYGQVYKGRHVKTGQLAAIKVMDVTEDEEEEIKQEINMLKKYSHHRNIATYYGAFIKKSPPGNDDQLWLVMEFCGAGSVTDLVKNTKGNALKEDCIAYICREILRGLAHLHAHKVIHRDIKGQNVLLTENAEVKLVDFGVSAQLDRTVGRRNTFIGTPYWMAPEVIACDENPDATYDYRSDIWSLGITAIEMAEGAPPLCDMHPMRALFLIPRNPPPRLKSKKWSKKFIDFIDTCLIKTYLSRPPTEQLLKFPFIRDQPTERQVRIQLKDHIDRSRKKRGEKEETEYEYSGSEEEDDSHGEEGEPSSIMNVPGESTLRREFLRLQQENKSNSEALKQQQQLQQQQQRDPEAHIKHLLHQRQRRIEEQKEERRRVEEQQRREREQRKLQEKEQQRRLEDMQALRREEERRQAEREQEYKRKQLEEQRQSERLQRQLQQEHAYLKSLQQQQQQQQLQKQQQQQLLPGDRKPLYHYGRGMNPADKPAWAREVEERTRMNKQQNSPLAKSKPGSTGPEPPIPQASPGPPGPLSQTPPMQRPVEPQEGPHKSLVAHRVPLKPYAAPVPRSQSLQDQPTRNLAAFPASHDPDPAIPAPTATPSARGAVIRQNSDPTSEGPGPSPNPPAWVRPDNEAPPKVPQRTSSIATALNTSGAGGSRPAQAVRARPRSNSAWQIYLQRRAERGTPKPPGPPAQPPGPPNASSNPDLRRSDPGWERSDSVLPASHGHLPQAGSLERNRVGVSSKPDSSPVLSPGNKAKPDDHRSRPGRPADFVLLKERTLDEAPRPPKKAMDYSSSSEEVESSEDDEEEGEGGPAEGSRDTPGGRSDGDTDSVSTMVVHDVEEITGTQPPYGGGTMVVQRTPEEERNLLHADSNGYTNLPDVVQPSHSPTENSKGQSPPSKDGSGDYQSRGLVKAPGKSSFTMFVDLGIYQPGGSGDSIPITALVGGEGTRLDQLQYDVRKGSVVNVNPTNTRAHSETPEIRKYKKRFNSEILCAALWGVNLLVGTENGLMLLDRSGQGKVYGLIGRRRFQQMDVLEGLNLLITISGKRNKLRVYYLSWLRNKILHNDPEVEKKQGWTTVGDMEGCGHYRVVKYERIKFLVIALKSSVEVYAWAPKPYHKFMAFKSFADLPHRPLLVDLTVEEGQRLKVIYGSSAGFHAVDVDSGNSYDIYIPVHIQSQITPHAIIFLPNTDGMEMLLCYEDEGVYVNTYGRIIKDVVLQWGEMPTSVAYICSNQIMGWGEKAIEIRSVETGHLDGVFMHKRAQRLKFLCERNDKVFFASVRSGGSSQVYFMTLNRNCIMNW
T8 sequence (P25440 whole entry): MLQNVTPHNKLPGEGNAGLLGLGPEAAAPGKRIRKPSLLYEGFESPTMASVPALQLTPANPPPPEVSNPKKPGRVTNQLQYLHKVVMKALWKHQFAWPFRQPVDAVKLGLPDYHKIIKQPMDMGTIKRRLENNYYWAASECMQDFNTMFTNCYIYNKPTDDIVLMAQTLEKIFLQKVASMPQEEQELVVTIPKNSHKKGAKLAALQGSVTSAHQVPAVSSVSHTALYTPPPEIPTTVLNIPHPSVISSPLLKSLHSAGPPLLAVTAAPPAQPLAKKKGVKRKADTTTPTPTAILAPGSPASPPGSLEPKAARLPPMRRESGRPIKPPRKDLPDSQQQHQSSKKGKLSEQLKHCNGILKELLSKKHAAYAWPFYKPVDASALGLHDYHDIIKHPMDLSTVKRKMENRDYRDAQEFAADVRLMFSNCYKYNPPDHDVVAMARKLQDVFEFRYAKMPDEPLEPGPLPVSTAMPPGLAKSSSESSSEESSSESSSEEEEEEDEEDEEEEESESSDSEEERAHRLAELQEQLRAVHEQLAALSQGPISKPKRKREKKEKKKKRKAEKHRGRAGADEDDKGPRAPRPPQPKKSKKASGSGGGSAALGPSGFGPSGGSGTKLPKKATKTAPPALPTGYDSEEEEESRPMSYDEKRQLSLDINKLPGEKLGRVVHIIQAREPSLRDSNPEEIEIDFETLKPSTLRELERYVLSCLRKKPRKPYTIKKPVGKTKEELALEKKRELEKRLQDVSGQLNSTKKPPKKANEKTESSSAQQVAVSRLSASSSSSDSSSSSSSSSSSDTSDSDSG
T5 sequence (Q9NSY1 whole entry): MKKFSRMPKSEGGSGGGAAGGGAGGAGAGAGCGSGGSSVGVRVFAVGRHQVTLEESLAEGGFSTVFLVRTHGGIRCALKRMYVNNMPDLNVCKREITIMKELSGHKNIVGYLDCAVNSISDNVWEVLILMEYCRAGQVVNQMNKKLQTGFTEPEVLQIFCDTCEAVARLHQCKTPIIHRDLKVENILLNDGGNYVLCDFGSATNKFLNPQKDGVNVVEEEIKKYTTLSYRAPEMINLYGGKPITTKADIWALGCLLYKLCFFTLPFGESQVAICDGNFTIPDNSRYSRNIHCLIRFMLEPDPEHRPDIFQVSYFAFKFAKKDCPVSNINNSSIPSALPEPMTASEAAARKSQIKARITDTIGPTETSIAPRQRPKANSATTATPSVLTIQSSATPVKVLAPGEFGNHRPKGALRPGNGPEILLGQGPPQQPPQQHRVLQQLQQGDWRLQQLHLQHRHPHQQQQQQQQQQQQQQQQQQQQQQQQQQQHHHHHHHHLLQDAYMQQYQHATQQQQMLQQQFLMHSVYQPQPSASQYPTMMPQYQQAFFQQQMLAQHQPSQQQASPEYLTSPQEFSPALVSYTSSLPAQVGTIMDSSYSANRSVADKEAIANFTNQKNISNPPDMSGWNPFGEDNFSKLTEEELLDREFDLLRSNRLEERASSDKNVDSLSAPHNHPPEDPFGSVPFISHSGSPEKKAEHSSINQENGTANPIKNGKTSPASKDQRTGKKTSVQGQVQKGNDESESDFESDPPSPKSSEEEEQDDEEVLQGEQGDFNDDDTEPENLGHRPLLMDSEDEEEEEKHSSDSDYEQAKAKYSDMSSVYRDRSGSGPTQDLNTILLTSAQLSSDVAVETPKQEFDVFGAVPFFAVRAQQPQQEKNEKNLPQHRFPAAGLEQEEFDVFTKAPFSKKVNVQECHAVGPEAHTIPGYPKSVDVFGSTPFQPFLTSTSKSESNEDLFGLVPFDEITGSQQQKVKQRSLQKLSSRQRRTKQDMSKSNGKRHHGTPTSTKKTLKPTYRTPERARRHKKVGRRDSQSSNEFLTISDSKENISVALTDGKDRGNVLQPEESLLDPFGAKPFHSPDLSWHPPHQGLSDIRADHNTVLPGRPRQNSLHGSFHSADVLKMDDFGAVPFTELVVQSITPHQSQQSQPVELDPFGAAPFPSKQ

## N#CCc1ccc(Nc2nc(NCCCN)cc(Nc3cc(C4CC4)[nH]n3)n2)cc1 [KAM]
NEK2; [1]
  IC50: 5870 nM
NEK2; relative to 0 uM KAM = 0
  0.001 uM KAM: 0.005896
  0.01 uM KAM: 0.02457
  0.1 uM KAM: -0.07556
  1 uM KAM: -0.1875
  10 uM KAM: -0.3106
MINK1; 0.001 uM KAM
  median Log10 fold change: -0.05922
MINK1; 0.01 uM KAM
  median Log10 fold change: -0.00678
MINK1; 0.1 uM KAM
  median Log10 fold change: -0.2189
MINK1; 1 uM KAM
  median Log10 fold change: -0.4489
MINK1; 10 uM KAM
  median Log10 fold change: -0.4879
MINK1; [2]
  IC50: 329 nM
MARK2; 0.001 uM KAM
  median Log10 fold change: -0.02617
MARK2; 0.01 uM KAM
  median Log10 fold change: -0.01928
MARK2; 0.1 uM KAM
  median Log10 fold change: -0.2168
MARK2; 1 uM KAM
  median Log10 fold change: -0.4361
MARK2; 10 uM KAM
  median Log10 fold change: -0.5469
MARK2; [2]
  IC50: 336 nM
TYK2; 0.001 uM KAM
  median Log10 fold change: -0.01748
TYK2; 0.01 uM KAM
  median Log10 fold change: -0.01468
TYK2; 0.1 uM KAM
  median Log10 fold change: -0.1723
TYK2; 1 uM KAM
  median Log10 fold change: -0.4058
TYK2; 10 uM KAM
  median Log10 fold change: -0.4958
TYK2; [2]
  IC50: 536 nM
BMP2K; 0.001 uM KAM
  median Log10 fold change: -0.005905
BMP2K; 0.01 uM KAM
  median Log10 fold change: -0.3094
BMP2K; 0.1 uM KAM
  median Log10 fold change: -0.4691
BMP2K; 1 uM KAM
  median Log10 fold change: -0.5686
BMP2K; 10 uM KAM
  median Log10 fold change: -0.6945
BMP2K; [2]
  IC50: 16 nM
PHKG2; 0.001 uM KAM
  median Log10 fold change: 0.003099
PHKG2; 0.01 uM KAM
  median Log10 fold change: -0.03027
PHKG2; 0.1 uM KAM
  median Log10 fold change: -0.2223
PHKG2; 1 uM KAM
  median Log10 fold change: -0.4221
PHKG2; 10 uM KAM
  median Log10 fold change: -0.5566
PHKG2; [2]
  IC50: 338 nM
RAF1; [1]
  IC50: > 10000 nM
RAF1; relative to 0 uM KAM = 0
  0.001 uM KAM: 0.02436
  0.01 uM KAM: -0.01322
  0.1 uM KAM: -0.08739
  1 uM KAM: -0.1339
  10 uM KAM: -0.1871
BRD2; 0.001 uM KAM
  median Log10 fold change: -0.02696
BRD2; 0.01 uM KAM
  median Log10 fold change: -0.0008346
BRD2; 0.1 uM KAM
  median Log10 fold change: -0.172
BRD2; 1 uM KAM
  median Log10 fold change: -0.286
BRD2; 10 uM KAM
  median Log10 fold change: -0.3099
BRD2; [2]
  IC50: 1890 nM
RIPK2; 0.001 uM KAM
  median Log10 fold change: 0.003964
RIPK2; 0.01 uM KAM
  median Log10 fold change: -0.006424
RIPK2; 0.1 uM KAM
  median Log10 fold change: -0.0711
RIPK2; 1 uM KAM
  median Log10 fold change: -0.241
RIPK2; 10 uM KAM
  median Log10 fold change: -0.4874
RIPK2; [2]
  IC50: 1860 nM
SIK2; 0.001 uM KAM
  median Log10 fold change: -0.01021
SIK2; 0.01 uM KAM
  median Log10 fold change: -0.008818
SIK2; 0.1 uM KAM
  median Log10 fold change: -0.08618
SIK2; 1 uM KAM
  median Log10 fold change: -0.3925
SIK2; 10 uM KAM
  median Log10 fold change: -0.5017
SIK2; [2]
  IC50: 798 nM
